# Reference: patent US11472803B2, “7-substituted 1-aryl-naphthyridine-3-carboxylic acid amides and use thereof” (Bayer Aktiengesellschaft, priority 2016, dated 2022)
# Target: T1, human M2 receptor (Homo sapiens, UniProt P08172)
# T1 construct: expressed in transfected cells; host or cells: CHO-DUKX (CHO-DUKX-M2-GIRK)
# T1 sequence (P08172 1-466): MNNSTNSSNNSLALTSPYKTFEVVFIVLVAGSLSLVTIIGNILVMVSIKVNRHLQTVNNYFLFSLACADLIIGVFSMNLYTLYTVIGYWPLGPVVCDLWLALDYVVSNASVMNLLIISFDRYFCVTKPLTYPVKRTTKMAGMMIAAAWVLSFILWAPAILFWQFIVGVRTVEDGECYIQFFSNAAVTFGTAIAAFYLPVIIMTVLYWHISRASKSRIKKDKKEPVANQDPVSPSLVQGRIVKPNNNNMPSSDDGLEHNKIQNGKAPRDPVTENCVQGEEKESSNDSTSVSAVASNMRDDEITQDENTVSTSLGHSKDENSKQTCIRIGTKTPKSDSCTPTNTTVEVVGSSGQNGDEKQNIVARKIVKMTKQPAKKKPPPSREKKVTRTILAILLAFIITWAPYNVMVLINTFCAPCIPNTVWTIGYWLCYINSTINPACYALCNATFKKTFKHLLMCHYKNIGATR
# Experiment: Functional M2-GIRK1/4 activation test: allosteric potency (EC50) and efficiency at EC20 acetylcholine
# Assay type: cell-based
# Conditions: CHO-DUKX-M2-GIRK cells; for EC50: voltage-sensitive dye, acetylcholine at EC20, in some cases mean of two or more determinations; for Emax: boosting of the acetylcholine effect at EC20 acetylcholine concentration
# Procedure, shortened: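 CHO-DUKX cells stably expressing human M2 and GIRK1/4; membrane potential tracked with voltage-sensitive dye at room temperature. Compound added 50 s before acetylcholine at its EC20, then hyperpolarization read 60 s. EC50 (allosteric potency) and efficiency (boost of EC20 ACh effect) from 4-parameter Hill fit.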
SMILES,EC50,Emax
"O=C(N[C@@H](C1CC1)C(F)(F)F)c1cn(-c2c(F)cc(F)cc2Cl)c2nc(N3CC(CO)(CO)C3)c(F)cc2c1=O [Example 69, 7-[3,3-Bis(hydroxymethyl)azetidin-1-yl]-1-(2-chloro-4,6-difluorophenyl)-N-[(1S)-1-cyclopropyl-2,2,2-trifluoroethyl]-6-fluoro-4-oxo-1,4-dihydro-1,8-naphthyridine-3-carboxamide]",5.9 nM,100%
"C[C@H](O)CN(C)c1nc2c(cc1F)c(=O)c(C(=O)N[C@@H](C1CC1)C(F)(F)F)cn2-c1c(F)cc(F)cc1Cl [Example 72, 1-(2-Chloro-4,6-difluorophenyl)-N-[(1S)-1-cyclopropyl-2,2,2-trifluoroethyl]-6-fluoro-7-{[(2S)-2-hydroxypropyl](methyl)amino}-4-oxo-1,4-dihydro-1,8-naphthyridine-3-carboxamide]",11 nM,89%
"CCC(C)(C)NC(=O)c1cn(-c2c(F)cc(F)cc2Cl)c2nc(N3C[C@@H](O)[C@H](O)C3)c(F)cc2c1=O [Example 73, 1-(2-Chloro-4,6-difluorophenyl)-7-[(3R,4R)-3,4-dihydroxypyrrolidin-1-yl]-6-fluoro-N-(2-methylbutan-2-yl)-4-oxo-1,4-dihydro-1,8-naphthyridine-3-carboxamide]",2.7 nM,94%
"CC(C)(C)NC(=O)c1cn(-c2c(F)cc(F)cc2Cl)c2nc(N3C[C@@H](O)[C@H](O)C3)c(F)cc2c1=O [Example 74, N-tert-Butyl-1-(2-chloro-4,6-difluorophenyl)-7-[(3R,4R)-3,4-dihydroxypyrrolidin-1-yl]-6-fluoro-4-oxo-1,4-dihydro-1,8-naphthyridine-3-carboxamide]",3.9 nM,95%
"CCC(C)(C)NC(=O)c1cn(-c2ncc(F)cc2F)c2nc(N3C[C@@H](O)[C@H](O)C3)c(F)cc2c1=O [Example 75, 1-(3,5-Difluoropyridin-2-yl)-7-[(3R,4R)-3,4-dihydroxypyrrolidin-1-yl]-6-fluoro-N-(2-methyl-butan-2-yl)-4-oxo-1,4-dihydro-1,8-naphthyridine-3-carboxamide]",87 nM,100%
"CCC(C)(CC)NC(=O)c1cn(-c2ncc(F)cc2F)c2nc(N3C[C@@H](O)[C@H](O)C3)c(F)cc2c1=O [Example 76, 1-(3,5-Difluoropyridin-2-yl)-7-[(3R,4R)-3,4-dihydroxypyrrolidin-1-yl]-6-fluoro-N-(3-methylpentan-3-yl)-4-oxo-1,4-dihydro-1,8-naphthyridine-3-carboxamide]",29 nM,100%
"CCC(CC)(CC)NC(=O)c1cn(-c2c(F)cc(F)cc2F)c2nc(N3C[C@@H](O)[C@@H](O)C3)c(F)cc2c1=O [Example 77, 7-[(3R,4S)-3,4-Dihydroxypyrrolidin-1-yl]-N-(3-ethylpentan-3-yl)-6-fluoro-4-oxo-1-(2,4,6-tri-fluorophenyl)-1,4-dihydro-1,8-naphthyridine-3-carboxamide]",1.6 nM,100%
"CCC(C)(CC)NC(=O)c1cn(-c2c(F)cc(F)cc2F)c2nc(N3C[C@@H](O)[C@@H](O)C3)c(F)cc2c1=O [Example 78, 7-[(3R,4S)-3,4-Dihydroxypyrrolidin-1-yl]-6-fluoro-N-(3-methylpentan-3-yl)-4-oxo-1-(2,4,6-trifluorophenyl)-1,4-dihydro-1,8-naphthyridine-3-carboxamide]",2.8 nM,100%
"CCC(C)(C)NC(=O)c1cn(-c2c(F)cc(F)cc2F)c2nc(N3C[C@@H](O)[C@@H](O)C3)c(F)cc2c1=O [Example 79, 7-[(3R,4S)-3,4-Dihydroxypyrrolidin-1-yl]-6-fluoro-N-(2-methylbutan-2-yl)-4-oxo-1-(2,4,6-tri-fluorophenyl)-1,4-dihydro-1,8-naphthyridine-3-carboxamide]",9.3 nM,99%
"CC(C)(C)NC(=O)c1cn(-c2c(F)cc(F)cc2F)c2nc(N3C[C@@H](O)[C@@H](O)C3)c(F)cc2c1=O [Example 80, N-tert-Butyl-7-[(3R,4S)-3,4-dihydroxypyrrolidin-1-yl]-6-fluoro-4-oxo-1-(2,4,6-trifluoro-phenyl)-1,4-dihydro-1,8-naphthyridine-3-carboxamide]",24 nM,100%
"O=C(N[C@@H](C1CC1)C(F)(F)F)c1cn(-c2c(F)cc(F)cc2F)c2nc(N3CCNCC3)c(F)cc2c1=O [Example 81, N-[(1S)-1-Cyclopropyl-2,2,2-trifluoroethyl]-6-fluoro-4-oxo-7-(piperazin-1-yl)-1-(2,4,6-trifluorophenyl)-1,4-dihydro-1,8-naphthyridine-3-carboxamide]",150 nM,87%
"C[C@H]1CN(c2nc3c(cc2F)c(=O)c(C(=O)N[C@@H](C2CC2)C(F)(F)F)cn3-c2c(F)cc(F)cc2F)CCN1 [Example 82, N-[(1S)-1-Cyclopropyl-2,2,2-trifluoroethyl]-6-fluoro-7-[(3S)-3-methylpiperazin-1-yl]-4-oxo-1-(2,4,6-trifluorophenyl)-1,4-dihydro-1,8-naphthyridine-3-carboxamide]",140 nM,65%
"O=C(N[C@@H](C1CC1)C(F)(F)F)c1cn(-c2c(F)cc(F)cc2F)c2nc(N3CC4(COC4)C3)c(F)cc2c1=O [Example 83, N-[(1S)-1-Cyclopropyl-2,2,2-trifluoroethyl]-6-fluoro-7-(2-oxa-6-azaspiro[3.3]hept-6-yl)-4-oxo-1-(2,4,6-trifluorophenyl)-1,4-dihydro-1,8-naphthyridine-3-carboxamide]",44 nM,94%
"CC(C)(C)OC(=O)N1CCC(NC(=O)c2cn(-c3c(F)cc(F)cc3F)c3nc(N4C[C@@H](O)[C@H](O)C4)c(F)cc3c2=O)C(F)(F)C1 (stereo partly drawn) [Example 85, tert-Butyl 4-[({7-[(3R,4R)-3,4-dihydroxypyrrolidin-1-yl]-6-fluoro-4-oxo-1-(2,4,6-trifluoro-phenyl)-1,4-dihydro-1,8-naphthyridin-3-yl}carbonyl)amino]-3,3-difluoropiperidine-1-carboxylate]",33 nM,100%
"COC(=O)C12CCC(NC(=O)c3cn(-c4c(F)cc(F)cc4F)c4nc(N5C[C@@H](O)[C@H](O)C5)c(F)cc4c3=O)(CC1)C2 [Example 86, Methyl 4-[({7-[(3R,4R)-3,4-dihydroxypyrrolidin-1-yl]-6-fluoro-4-oxo-1-(2,4,6-trifluoro-phenyl)-1,4-dihydro-1,8-naphthyridin-3-yl}carbonyl)amino]bicyclo[2.2.1]heptane-1-carboxylate]",14 nM,95%
"CCC(CC)(CC)NC(=O)c1cn(-c2c(F)cc(F)cc2F)c2nc(N3C[C@@H](O)[C@H](O)C3)c(F)cc2c1=O [Example 87, 7-[(3R,4R)-3,4-Dihydroxypyrrolidin-1-yl]-N-(3-ethylpentan-3-yl)-6-fluoro-4-oxo-1-(2,4,6-tri-fluorophenyl)-1,4-dihydro-1,8-naphthyridine-3-carboxamide]",1.4 nM,100%
"CCC(C)(CC)NC(=O)c1cn(-c2c(F)cc(F)cc2F)c2nc(N3C[C@@H](O)[C@H](O)C3)c(F)cc2c1=O [Example 88, 7-[(3R,4R)-3,4-Dihydroxypyrrolidin-1-yl]-6-fluoro-N-(3-methylpentan-3-yl)-4-oxo-1-(2,4,6-trifluorophenyl)-1,4-dihydro-1,8-naphthyridine-3-carboxamide]",2.2 nM,100%
"CC(C)(CC(F)(F)F)NC(=O)c1cn(-c2c(F)cc(F)cc2F)c2nc(N3C[C@@H](O)[C@@H](O)C3)c(F)cc2c1=O [Example 91, 7-[(3R,4S)-3,4-Dihydroxypyrrolidin-1-yl]-6-fluoro-4-oxo-N-(4,4,4-trifluoro-2-methylbutan-2-yl)-1-(2,4,6-trifluorophenyl)-1,4-dihydro-1,8-naphthyridine-3-carboxamide]",6.5 nM,100%
"CC(C)[C@@H](C)NC(=O)c1cn(-c2c(F)cc(F)cc2F)c2nc(N3C[C@@H](O)[C@@H](O)C3)c(F)cc2c1=O [Example 99, 7-[(3R,4S)-3,4-Dihydroxypyrrolidin-1-yl]-6-fluoro-N-[(2R)-3-methylbutan-2-yl]-4-oxo-1-(2,4,6-trifluorophenyl)-1,4-dihydro-1,8-naphthyridine-3-carboxamide]",35.5 nM,96%
"CC(C)[C@H](C)NC(=O)c1cn(-c2c(F)cc(F)cc2F)c2nc(N3C[C@@H](O)[C@@H](O)C3)c(F)cc2c1=O [Example 100, 7-[(3R,4S)-3,4-Dihydroxypyrrolidin-1-yl]-6-fluoro-N-[(2S)-3-methylbutan-2-yl]-4-oxo-1-(2,4,6-trifluorophenyl)-1,4-dihydro-1,8-naphthyridine-3-carboxamide]",31.5 nM,100%
"O=C(N[C@@H](C1CC1)C(F)(F)F)c1cn(-c2c(F)cc(F)cc2F)c2nc(N3C[C@@H](O)[C@@H](O)C3)c(F)cc2c1=O [Example 101, N-[(1S)-1-Cyclopropyl-2,2,2-trifluoroethyl]-7-[(3R,4S)-3,4-dihydroxypyrrolidin-1-yl]-6-fluoro-4-oxo-1-(2,4,6-trifluorophenyl)-1,4-dihydro-1,8-naphthyridine-3-carboxamide]",13.5 nM,100%
